In ChEMBL document CHEMBL4507274 (2021):

Key:
[1] = biological target: ALK tyrosine kinase receptor (Homo sapiens) (UniProt Q9UM73); settings: Compound concentration 100.0 nM
[2] = system: ALK tyrosine kinase receptor (Homo sapiens), Q9UM73 [C1156Y]; settings: Compound concentration 100.0 nM
[3] = biological target: Serine/threonine-protein kinase BRSK1 (Homo sapiens) (UniProt Q8TDC3); settings: Compound concentration 100.0 nM
[4] = biological target: Cyclin-dependent kinase-like 2 (Homo sapiens) (UniProt Q92772); settings: Compound concentration 100.0 nM
[5] = biological target: Dual specificity protein kinase CLK2 (Homo sapiens) (UniProt P49760); settings: Compound concentration 100.0 nM
[6] = biological target: Casein kinase II subunit alpha' (Homo sapiens) (UniProt P19784); settings: Compound concentration 100.0 nM
[7] = biological target: Epithelial discoidin domain-containing receptor 1 (Homo sapiens) (UniProt Q08345); settings: Compound concentration 100.0 nM
[8] = biological target: Serine/threonine-protein kinase MRCK gamma (Homo sapiens) (UniProt Q6DT37); settings: Compound concentration 100.0 nM
[9] = biological target: Ephrin type-A receptor 8 (Homo sapiens) (UniProt P29322); settings: Compound concentration 100.0 nM
[10] = biological target: Receptor tyrosine-protein kinase erbB-3 (Homo sapiens) (UniProt P21860); settings: Compound concentration 100.0 nM
[11] = biological target: Mitogen-activated protein kinase 3 (Homo sapiens) (UniProt P27361); settings: Compound concentration 100.0 nM
[12] = biological target: Serine/threonine-protein kinase/endoribonuclease IRE1 (Homo sapiens) (UniProt O75460); settings: Compound concentration 100.0 nM
[13] = system: Receptor-type tyrosine-protein kinase FLT3 (Homo sapiens), P36888 [UNDEFINED MUTATION]; settings: Compound concentration 100.0 nM
[14] = biological target: Tyrosine-protein kinase HCK (Homo sapiens) (UniProt P08631); settings: Compound concentration 100.0 nM
[15] = biological target: Homeodomain-interacting protein kinase 1 (Homo sapiens) (UniProt Q86Z02); settings: Compound concentration 100.0 nM
[16] = system: Mast/stem cell growth factor receptor Kit (Homo sapiens), P10721 [L576P]; settings: Compound concentration 100.0 nM
[17] = biological target: Leukocyte tyrosine kinase receptor (Homo sapiens) (UniProt P29376); settings: Compound concentration 100.0 nM
[18] = biological target: Mitogen-activated protein kinase kinase kinase 13 (Homo sapiens) (UniProt O43283); settings: Compound concentration 100.0 nM
[19] = biological target: MAP kinase-activated protein kinase 2 (Homo sapiens) (UniProt P49137); settings: Compound concentration 100.0 nM
[20] = biological target: Serine/threonine-protein kinase MARK2 (Homo sapiens) (UniProt Q7KZI7); settings: Compound concentration 100.0 nM
[21] = biological target: Maternal embryonic leucine zipper kinase (Homo sapiens) (UniProt Q14680); settings: Compound concentration 100.0 nM
[22] = biological target: Myosin light chain kinase (Homo sapiens) (UniProt Q32MK0); settings: Compound concentration 100.0 nM
[23] = biological target: Serine/threonine-protein kinase 26 (Homo sapiens) (UniProt Q9P289); settings: Compound concentration 100.0 nM
[24] = biological target: Serine/threonine-protein kinase Nek6 (Homo sapiens) (UniProt Q9HC98); settings: Compound concentration 100.0 nM
[25] = biological target: T1, Mitogen-activated protein kinase 12 (Homo sapiens) (UniProt P53778); settings: Compound concentration 100.0 nM
T1 sequence (whole entry): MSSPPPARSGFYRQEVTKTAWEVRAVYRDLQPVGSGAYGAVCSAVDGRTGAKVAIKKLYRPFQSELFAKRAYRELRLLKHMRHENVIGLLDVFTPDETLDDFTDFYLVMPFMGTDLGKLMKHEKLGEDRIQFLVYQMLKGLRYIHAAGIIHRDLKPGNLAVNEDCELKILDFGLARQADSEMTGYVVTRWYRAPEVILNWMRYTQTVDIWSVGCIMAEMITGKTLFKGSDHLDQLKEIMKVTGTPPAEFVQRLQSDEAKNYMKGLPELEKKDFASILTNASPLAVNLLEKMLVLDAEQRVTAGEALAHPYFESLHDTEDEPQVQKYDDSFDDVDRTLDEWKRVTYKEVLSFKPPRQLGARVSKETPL

[26] = biological target: Calcium-dependent protein kinase 1 (Plasmodium falciparum) (UniProt P62344); settings: Compound concentration 100.0 nM
[27] = biological target: Cyclin-dependent kinase 14 (Homo sapiens) (UniProt O94921); settings: Compound concentration 100.0 nM
[28] = system: Phosphatidylinositol 4,5-bisphosphate 3-kinase catalytic subunit alpha isoform (Homo sapiens), P42336 [E545A]; settings: Compound concentration 100.0 nM
[29] = system: Phosphatidylinositol 4,5-bisphosphate 3-kinase catalytic subunit alpha isoform (Homo sapiens), P42336 [Q546K]; settings: Compound concentration 100.0 nM
[30] = biological target: 1-phosphatidylinositol 3-phosphate 5-kinase (Homo sapiens) (UniProt Q9Y2I7); settings: Compound concentration 100.0 nM
[31] = system: Proto-oncogene tyrosine-protein kinase receptor Ret (Homo sapiens), P07949 [V804M]; settings: Compound concentration 100.0 nM
[32] = biological target: Mitogen-activated protein kinase kinase kinase 7 (Homo sapiens) (UniProt O43318); settings: Compound concentration 100.0 nM
[33] = biological target: TGF-beta receptor type-1 (Homo sapiens) (UniProt P36897); settings: Compound concentration 100.0 nM
[34] = biological target: Serine/threonine-protein kinase tousled-like 1 (Homo sapiens) (UniProt Q9UKI8); settings: Compound concentration 100.0 nM
[35] = biological target: Non-receptor tyrosine-protein kinase TYK2 (Homo sapiens) (UniProt P29597); settings: Compound concentration 100.0 nM
[36] = biological target: Non-receptor tyrosine-protein kinase TYK2 (Homo sapiens) (UniProt P29597); settings: Compound concentration 100.0 nM; remark: listed apart in the source
[37] = biological target: Serine/threonine-protein kinase ULK3 (Homo sapiens) (UniProt Q6PHR2); settings: Compound concentration 100.0 nM
[38] = biological target: Serine/threonine-protein kinase WNK1 (Homo sapiens) (UniProt Q9H4A3); settings: Compound concentration 100.0 nM
[39] = biological target: Serine/threonine-protein kinase 32C (Homo sapiens) (UniProt Q86UX6); settings: Compound concentration 100.0 nM
[40] = biological target: Histamine H3 receptor (Homo sapiens) (UniProt Q9Y5N1); settings: Compound concentration 10.0 uM

Sequence of Non-receptor tyrosine-protein kinase TYK2 (Homo sapiens) (P29597 whole entry): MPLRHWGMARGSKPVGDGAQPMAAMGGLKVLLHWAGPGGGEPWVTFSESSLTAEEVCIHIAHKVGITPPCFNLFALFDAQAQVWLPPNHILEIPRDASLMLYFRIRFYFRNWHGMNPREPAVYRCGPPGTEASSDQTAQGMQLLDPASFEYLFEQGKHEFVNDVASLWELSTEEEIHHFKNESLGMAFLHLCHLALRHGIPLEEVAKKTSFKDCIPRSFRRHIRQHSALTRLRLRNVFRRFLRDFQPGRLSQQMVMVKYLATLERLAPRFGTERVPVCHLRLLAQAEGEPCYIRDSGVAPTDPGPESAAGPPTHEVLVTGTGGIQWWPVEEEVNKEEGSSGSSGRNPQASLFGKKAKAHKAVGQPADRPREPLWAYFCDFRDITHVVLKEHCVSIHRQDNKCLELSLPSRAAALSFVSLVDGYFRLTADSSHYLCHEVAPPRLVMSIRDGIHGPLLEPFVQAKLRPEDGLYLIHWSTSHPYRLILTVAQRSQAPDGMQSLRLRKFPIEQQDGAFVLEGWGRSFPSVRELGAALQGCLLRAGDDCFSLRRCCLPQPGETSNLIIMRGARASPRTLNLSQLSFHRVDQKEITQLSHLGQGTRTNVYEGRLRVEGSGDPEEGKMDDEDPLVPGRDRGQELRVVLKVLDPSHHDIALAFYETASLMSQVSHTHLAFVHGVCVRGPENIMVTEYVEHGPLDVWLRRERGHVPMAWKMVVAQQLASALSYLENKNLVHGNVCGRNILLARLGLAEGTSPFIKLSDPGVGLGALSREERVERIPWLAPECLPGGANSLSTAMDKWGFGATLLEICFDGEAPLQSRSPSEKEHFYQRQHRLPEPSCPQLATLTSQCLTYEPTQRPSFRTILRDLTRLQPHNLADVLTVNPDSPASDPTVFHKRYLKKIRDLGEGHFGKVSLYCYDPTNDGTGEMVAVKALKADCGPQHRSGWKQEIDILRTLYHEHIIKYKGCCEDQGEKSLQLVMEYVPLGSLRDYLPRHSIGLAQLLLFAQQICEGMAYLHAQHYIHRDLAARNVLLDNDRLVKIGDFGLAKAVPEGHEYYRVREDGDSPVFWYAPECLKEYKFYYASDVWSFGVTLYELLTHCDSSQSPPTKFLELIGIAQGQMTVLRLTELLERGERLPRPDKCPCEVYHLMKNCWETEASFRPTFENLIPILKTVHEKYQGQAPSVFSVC
Sequence of Serine/threonine-protein kinase MARK2 (Homo sapiens) (Q7KZI7 whole entry): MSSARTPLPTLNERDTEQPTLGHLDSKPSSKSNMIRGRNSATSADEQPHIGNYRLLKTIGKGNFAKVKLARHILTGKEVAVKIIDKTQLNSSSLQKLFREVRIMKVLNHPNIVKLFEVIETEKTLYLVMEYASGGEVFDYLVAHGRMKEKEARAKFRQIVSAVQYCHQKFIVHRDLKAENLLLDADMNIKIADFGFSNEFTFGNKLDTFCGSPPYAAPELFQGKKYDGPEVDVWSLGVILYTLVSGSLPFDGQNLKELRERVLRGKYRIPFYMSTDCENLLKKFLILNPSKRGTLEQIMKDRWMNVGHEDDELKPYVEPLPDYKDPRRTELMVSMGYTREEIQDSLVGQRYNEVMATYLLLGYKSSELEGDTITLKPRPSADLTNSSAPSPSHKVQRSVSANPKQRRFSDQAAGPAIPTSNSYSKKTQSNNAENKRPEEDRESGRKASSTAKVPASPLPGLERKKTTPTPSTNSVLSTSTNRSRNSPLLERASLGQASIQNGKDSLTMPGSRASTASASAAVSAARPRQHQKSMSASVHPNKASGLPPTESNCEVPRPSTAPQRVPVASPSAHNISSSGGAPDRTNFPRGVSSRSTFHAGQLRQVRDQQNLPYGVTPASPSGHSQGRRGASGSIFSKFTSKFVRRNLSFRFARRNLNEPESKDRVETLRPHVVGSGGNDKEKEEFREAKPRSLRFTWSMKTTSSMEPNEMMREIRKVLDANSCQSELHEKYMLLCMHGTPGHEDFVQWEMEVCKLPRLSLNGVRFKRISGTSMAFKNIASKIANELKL
Sequence of Epithelial discoidin domain-containing receptor 1 (Homo sapiens) (Q08345 whole entry, the tested form may be a part): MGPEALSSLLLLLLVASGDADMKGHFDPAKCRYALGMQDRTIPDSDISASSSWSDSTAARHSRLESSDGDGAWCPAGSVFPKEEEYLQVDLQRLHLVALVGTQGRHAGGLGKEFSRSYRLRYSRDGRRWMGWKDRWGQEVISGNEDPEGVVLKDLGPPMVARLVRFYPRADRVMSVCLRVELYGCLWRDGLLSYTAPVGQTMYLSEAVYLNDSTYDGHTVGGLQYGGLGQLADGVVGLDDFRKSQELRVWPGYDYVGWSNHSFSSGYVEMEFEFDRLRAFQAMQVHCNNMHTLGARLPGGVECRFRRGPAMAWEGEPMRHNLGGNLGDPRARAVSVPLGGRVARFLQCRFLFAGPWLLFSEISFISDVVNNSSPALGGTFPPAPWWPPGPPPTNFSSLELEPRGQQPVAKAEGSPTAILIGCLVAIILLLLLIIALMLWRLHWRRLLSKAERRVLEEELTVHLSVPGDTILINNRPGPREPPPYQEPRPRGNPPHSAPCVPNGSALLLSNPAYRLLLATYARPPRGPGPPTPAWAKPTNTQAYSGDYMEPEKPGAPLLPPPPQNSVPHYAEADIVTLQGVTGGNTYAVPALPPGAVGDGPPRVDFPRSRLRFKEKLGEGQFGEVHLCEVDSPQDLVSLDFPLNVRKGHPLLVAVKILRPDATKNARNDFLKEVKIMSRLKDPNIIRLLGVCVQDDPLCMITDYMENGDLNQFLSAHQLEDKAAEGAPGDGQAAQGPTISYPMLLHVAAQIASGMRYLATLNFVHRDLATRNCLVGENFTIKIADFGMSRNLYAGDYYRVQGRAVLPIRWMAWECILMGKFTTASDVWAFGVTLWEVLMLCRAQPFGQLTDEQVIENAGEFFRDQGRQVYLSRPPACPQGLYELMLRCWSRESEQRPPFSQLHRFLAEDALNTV
Sequence of Mitogen-activated protein kinase kinase kinase 13 (Homo sapiens) (O43283 whole entry): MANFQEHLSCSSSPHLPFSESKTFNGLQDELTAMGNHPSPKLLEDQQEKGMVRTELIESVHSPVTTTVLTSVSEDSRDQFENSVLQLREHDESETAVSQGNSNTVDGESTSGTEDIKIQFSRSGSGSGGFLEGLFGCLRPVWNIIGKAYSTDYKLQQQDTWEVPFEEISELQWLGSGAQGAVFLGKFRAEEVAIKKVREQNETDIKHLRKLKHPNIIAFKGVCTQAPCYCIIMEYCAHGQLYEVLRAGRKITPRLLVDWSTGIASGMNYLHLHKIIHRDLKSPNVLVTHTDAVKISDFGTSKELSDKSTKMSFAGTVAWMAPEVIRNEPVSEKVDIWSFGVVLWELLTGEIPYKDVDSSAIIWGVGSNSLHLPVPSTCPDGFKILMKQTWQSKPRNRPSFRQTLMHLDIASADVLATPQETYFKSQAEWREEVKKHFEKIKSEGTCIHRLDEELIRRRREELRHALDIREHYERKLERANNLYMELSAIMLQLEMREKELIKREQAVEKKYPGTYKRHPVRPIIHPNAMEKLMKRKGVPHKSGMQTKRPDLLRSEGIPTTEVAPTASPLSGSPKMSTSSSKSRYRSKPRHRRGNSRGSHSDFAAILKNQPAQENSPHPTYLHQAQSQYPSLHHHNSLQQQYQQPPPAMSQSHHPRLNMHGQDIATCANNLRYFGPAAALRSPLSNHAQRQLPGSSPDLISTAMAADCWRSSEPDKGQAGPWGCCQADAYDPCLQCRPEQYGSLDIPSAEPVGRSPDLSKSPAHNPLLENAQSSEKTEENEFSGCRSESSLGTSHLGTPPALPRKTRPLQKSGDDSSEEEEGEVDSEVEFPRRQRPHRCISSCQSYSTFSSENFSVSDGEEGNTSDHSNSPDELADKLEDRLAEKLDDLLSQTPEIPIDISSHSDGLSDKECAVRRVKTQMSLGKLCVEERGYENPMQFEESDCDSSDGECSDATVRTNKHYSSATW
Sequence of Myosin light chain kinase (Homo sapiens) (Q32MK0 whole entry): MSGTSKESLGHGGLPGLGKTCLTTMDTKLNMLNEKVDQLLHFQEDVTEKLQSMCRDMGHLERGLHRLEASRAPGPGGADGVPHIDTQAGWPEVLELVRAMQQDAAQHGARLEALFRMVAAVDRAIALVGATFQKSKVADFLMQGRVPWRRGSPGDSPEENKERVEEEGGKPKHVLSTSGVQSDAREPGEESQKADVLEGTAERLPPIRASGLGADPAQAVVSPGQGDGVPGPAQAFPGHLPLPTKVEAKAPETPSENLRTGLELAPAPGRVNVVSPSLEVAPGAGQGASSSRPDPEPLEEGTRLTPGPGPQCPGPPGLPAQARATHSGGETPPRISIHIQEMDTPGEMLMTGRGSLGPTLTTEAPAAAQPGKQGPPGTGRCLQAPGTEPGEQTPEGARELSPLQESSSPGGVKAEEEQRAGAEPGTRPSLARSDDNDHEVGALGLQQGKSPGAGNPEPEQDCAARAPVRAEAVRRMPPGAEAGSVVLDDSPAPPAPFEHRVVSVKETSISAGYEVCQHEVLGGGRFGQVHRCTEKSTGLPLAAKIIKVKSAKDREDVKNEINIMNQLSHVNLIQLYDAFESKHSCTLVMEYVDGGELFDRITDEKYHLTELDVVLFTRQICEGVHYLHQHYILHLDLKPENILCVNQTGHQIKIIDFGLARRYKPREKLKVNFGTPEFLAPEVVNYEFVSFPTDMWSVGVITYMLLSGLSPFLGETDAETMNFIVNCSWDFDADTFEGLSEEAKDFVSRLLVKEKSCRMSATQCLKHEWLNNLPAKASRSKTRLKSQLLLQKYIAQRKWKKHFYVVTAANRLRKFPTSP
Sequence of Serine/threonine-protein kinase Nek6 (Homo sapiens) (Q9HC98 whole entry): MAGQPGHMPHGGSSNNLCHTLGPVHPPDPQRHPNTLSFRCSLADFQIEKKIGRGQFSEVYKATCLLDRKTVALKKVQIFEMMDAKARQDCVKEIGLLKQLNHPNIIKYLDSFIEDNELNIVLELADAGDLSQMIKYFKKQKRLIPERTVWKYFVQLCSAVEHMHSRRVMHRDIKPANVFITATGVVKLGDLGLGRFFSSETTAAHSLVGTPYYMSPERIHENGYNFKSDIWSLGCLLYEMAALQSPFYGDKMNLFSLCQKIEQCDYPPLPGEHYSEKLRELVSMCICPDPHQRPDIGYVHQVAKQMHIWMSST

Cn1cc(Cl)c2c(Oc3c(F)cc(Nc4cc(Cl)nc(N)n4)cc3F)ccnc21 [BAY-4900]
inactive: residual activity [1] 89% | residual activity [2] 100% | residual activity [3] 100% | residual activity [4] 100% | residual activity [5] 87% | residual activity [6] 89% | residual activity [7] 100% | residual activity [8] 100% | residual activity [9] 100% | residual activity [10] 75% | residual activity [11] 98% | residual activity [12] 76% | residual activity [13] 61% | residual activity [14] 100% | residual activity [15] 100% | residual activity [16] 100% | residual activity [17] 87% | residual activity [18] 99% | residual activity [19] 100% | residual activity [20] 100% | residual activity [21] 89% | residual activity [22] 94% | residual activity [23] 92% | residual activity [24] 100% | residual activity [25] 100% | residual activity [26] 88% | residual activity [27] 100% | residual activity [28] 88% | residual activity [29] 76% | residual activity [30] 91% | residual activity [31] 95% | residual activity [32] 100% | residual activity [33] 93% | residual activity [34] 100% | residual activity [35] 81% | residual activity [36] 85% | residual activity [37] 85% | residual activity [38] 98% | residual activity [39] 100% | inhibition [40] 31%

Cc1c[nH]c2nccc(Oc3c(F)cc(Nc4cc(Cl)nc(N)n4)cc3F)c12 [BAY-549]
inactive: residual activity [1] 95% | residual activity [2] 100% | residual activity [3] 96% | residual activity [4] 93% | residual activity [5] 86% | residual activity [6] 86% | residual activity [7] 100% | residual activity [8] 68% | residual activity [9] 87% | residual activity [10] 65% | residual activity [11] 90% | residual activity [12] 68% | residual activity [13] 54% | residual activity [14] 100% | residual activity [15] 100% | residual activity [16] 72% | residual activity [17] 99% | residual activity [18] 81% | residual activity [19] 100% | residual activity [20] 100% | residual activity [21] 57% | residual activity [22] 91% | residual activity [23] 100% | residual activity [24] 99% | residual activity [25] 100% | residual activity [26] 91% | residual activity [27] 100% | residual activity [28] 88% | residual activity [29] 76% | residual activity [30] 98% | residual activity [31] 100% | residual activity [32] 92% | residual activity [33] 81% | residual activity [34] 100% | residual activity [35] 78% | residual activity [36] 89% | residual activity [37] 88% | residual activity [38] 90% | residual activity [39] 93% | inhibition [40] 8.13%
